These results are taken from article PMC10400562, “Label-free measurement of antimicrobial peptide interactions with lipid vesicles and nanodiscs using microscale thermophoresis” (Scientific Reports, 2023).

Non-standard residues stand in square brackets, D forms with d. Residues, ends and D or L forms follow the SMILES beside them.

A short description of data set [1]: Label-free MST, peptide binding to SMA-QA nanodiscs. Conditions: for Kd: label-free MST, SMA-QA nanodiscs (cationic belt), 2500 nM AMP, Hill fit, mean ± SD of triplicates, '>' = minimum value; for SMA-QA KP, DMPC (MST) / SMA-QA KP, DMPC/PG (MST): partition coefficient from initial fluorescence on MST instrument, SMA-QA nanodiscs, hyperbolic fit, ± SD of triplicate fits. The protocol: The MST data for two nanodisc types, SMA and SMA-QA, were evaluated using the same methodology as the vesicle data, with FHot taken during the TRIC, and Fnorm plotted against log[lipid] and fit to Eq. (6).
The DMPC, and DMPC with 5% DMPG 21 mM vesicle stocks were used for the nanodisc preparation. The stocks were combined with an 8% SMA stock solution to yield a final SMA concentration of 1% for SMA nanodiscs. The stocks were combined with a 100 mg/mL SMA-QA stock to yield a final lipid:SMA-QA w/w ratio of 1:1.5. The combined SMA/SMA-QA and lipid mixture were incubated at room temperature overnight and purified by SEC. Fractions containing SMA/SMA-QA discs were concentrated using centrifugation filters. Total lipid concentration was determined by ^31P NMR (Figs. S4–S7). Nanodisc size was confirmed using a Malvern Zetasizer Nano ZS (Malvern Panalytical Ltd, Malvern, United Kingdom).
(§1) All MST measurements were conducted on a NanoTemper Monolith NT. Labelfree instrument, using Monolith NT. Labelfree standard treated zero background capillaries.
(§2) A dilution series of vesicles/nanodiscs was prepared from 3 mM to 100 nM lipid concentrations, comprising 15 discrete samples, and an additional zero lipid sample, for a total of 16 lipid concentrations. Final MST samples were prepared as a combination of 25 µL lipid solution and 25 µL 5 µM peptide solution (Table S1 in the Supporting Information).
(§3) MST measurements were conducted with excitation power set to 15%, with the MST power set to high. Laser time settings were: 3 s pre-laser, 30 s on time, and 3 s after heating. FHot was taken from the T-jump period after 1.5 s and FCold taken in the second prior to IR laser activation. For the evaluation of KP, the initial fluorescence was taken as the value reported during the period before the application of the laser. The MST response and initial fluorescence were extracted directly as a text file for further processing in MATLAB.
(§4) In a typical binding experiment that yields a sigmoidal curve, the Hill equation can be fitted to yield KD:[66]6 y=y0+EMaxLipid^n/KDn+Lipid^n where y is the MST response, y0 is the MST response of the AMP in an aqueous solution (i.e., in the absence of lipids), n is the Hill coefficient, and EMax is the maximal effect of the tested substrate. The removal of outlying MST response points was necessary. Erroneous points were identified by poor MST trace shapes or higher than expected initial fluorescence that was absent in the other replicates or subsequent points, but otherwise no further treatment of data was necessary. In all instances the MST response was plotted against log lipid concentration in nM and fit to Eq. (6).
(§5) The Kp of a molecule can be determined experimentally by observing changes in fluorescent intensity in the presence of an increasing concentration of lipid, and fitting to Eq. (8)[43].8 I/Iaq=1+KpVmLipidIL/Iaq/1+KPVmLipid
(§6) In Eq. (8) the fluorescence intensity of the AMP (I) is normalised to the fluorescence intensity of the AMP in an aqueous environment (Iaq), Vm is the molar volume of the lipids and IL is the fluorescence intensity of the AMP in the lipidic environment. For Vm, the average molar volume of the lipid composition is used. In the case of the DMPC only environments it is taken as the Vm of DMPC (1.023 nm^3), and in the DMPC-DMPG mixture it is the weighted average relative to the composition used (Vm DMPG = 0.997 nm^3)[54].

Data set [2] can be described thus: SPR; KP from the fits. Conditions: buffer.
Data set [3] can be described thus: Label-free MST, peptide binding to 100 nm vesicles. Conditions: 2500 nM AMP; for Kd: label-free MST (Trp fluorescence), lipid 0–1.5 mM, 10 mM TRIS pH 7.4 100 mM NaCl, mean ± SD of triplicates, '>' = minimum value; for Vesicle KP, DMPC (MST) / Vesicle KP, DMPC/PG (MST): partition coefficient from initial fluorescence on MST instrument, TRIS pH 7.4, ± SD of triplicate fits, judged unreliable by authors; for Vesicle KP, DMPC (MST): hyperbolic fit after removal of deviant points; for Vesicle KP, DMPC/PG (MST): hyperbolic fit.
Source text: For KD evaluation by MST, FHot was registered during the temperature related intensity change (TRIC) phase of the MST trace (see “Methods”). The advantage of evaluating KD during the TRIC phase is that any potential effects of prolonged heating on the thermostability of the sample that may influence the binding can be avoided. The dose–response profile of MST response against lipid concentration for 1–5 largely follows a sigmoidal curve shape (Fig. 3A,B).
DMPC and DMPC:5% DMPG vesicles were prepared by solubilising a known weight of lipid in chloroform with a small amount of methanol to assist in the dissolution of the PG lipid head groups. The chloroform stock was dried in vacuo to produce a lipid film, which was further dried for additional 3 h. The lipid film was solubilised in 10 mM TRIS buffer (pH 7.4) containing 100 mM NaCl to yield a 20 mM milky lipid stock.
To produce the working vesicle stock, 1 mL of vesicle stock was extruded 20 times through a 0.1 µm filter using an Avanti Lipids mini-extruder. Vesicle size was confirmed using a Malvern Zetasizer Nano ZS (Malvern Panalytical Ltd, Malvern, United Kingdom).
as §1, §2, §3, §4, §5, §6

The nature of data set [4]: Vesicle; KP from the fits. Conditions: buffer.
[5] abbreviates: read-out: SMA-QA KD, DMPC (MST).
Setting [6] is: read-out: SMA-QA KD, DMPC/PG (MST).
[7] abbreviates: Hill fit of Fnorm in TRIC phase, insufficient curve sampling, read-out: Vesicle KD, DMPC (MST).
The mark [8] stands for this setting: Hill fit, read-out: Vesicle KD, DMPC/PG (MST).

`N=C(N)NCCC[C@@H]1NC(=O)[C@H](CCCNC(=N)N)NC(=O)[C@H](Cc2c[nH]c3ccccc23)NC(=O)[C@H](Cc2c[nH]c3ccccc23)NC(=O)[C@H](Cc2c[nH]c3ccccc23)NC(=O)[C@H](CCCNC(=N)N)NC1=O` [compound 1] (cyclo(WWWRRR)): the Kd turned out to be 142 ± 17 µM in data set [1] (setting [5]), 40 ± 5 µM in data set [1] (setting [6]), 21 ± 3 µM in data set [3] (setting [7]) and 10 ± 5 µM in data set [3] (setting [8]). Further, in data set [1], the “SMA-QA KP, DMPC (MST)” value is listed as 7.07 ± 1.78 × 10^3. In data set [1], the “SMA-QA KP, DMPC/PG (MST)” value is listed as 7.63 ± 1.89 × 10^3. Further, the “membrane partition coefficient KP (KP x 10^3)” value in data set [2] (DMPC bilayer on SPR chip) is listed as 6.65 ± 0.80 x10^3; in data set [2] (DMPC/PG bilayer on SPR chip), 12.71 ± 0.16 x10^3; in data set [4] (DMPC vesicles (MST)), 7.24 ± 1.73 x10^3; in data set [4] (DMPC/PG vesicles (MST)), 7.73 ± 1.58 x10^3. Also, in data set [3], the “Vesicle KP, DMPC (MST)” value is 7.24 ± 1.73 × 10^3. In addition, in data set [3], the “Vesicle KP, DMPC/PG (MST)” value is given as 7.73 ± 1.58 × 10^3.

Turning to `N=C(N)NCCC[C@@H]1NC(=O)[C@H](Cc2c[nH]c3ccccc23)NC(=O)[C@H](CCCNC(=N)N)NC(=O)[C@H](Cc2c[nH]c3ccccc23)NC(=O)[C@H](CCCNC(=N)N)NC(=O)[C@H](Cc2c[nH]c3ccccc23)NC1=O` [compound 2] (cyclo(WRWRWR)), the Kd was > 541 µM in data set [1] (setting [5]), > 615 µM in data set [1] (setting [6]), 73 ± 53 µM in data set [3] (setting [7]) and 24 ± 7 µM in data set [3] (setting [8]). The “SMA-QA KP, DMPC (MST)” value in data set [1] was 36.55 ± 11.82 × 10^3. The “SMA-QA KP, DMPC/PG (MST)” value in data set [1] is on record as 12.62 ± 4.16 × 10^3. The “membrane partition coefficient KP (KP x 10^3)” value in data set [2] (DMPC bilayer on SPR chip) is 1.30 ± 0.09 x10^3; in data set [2] (DMPC/PG bilayer on SPR chip), 3.16 ± 0.15 x10^3; in data set [4] (DMPC vesicles (MST)), 7.08 ± 2.32 x10^3; in data set [4] (DMPC/PG vesicles (MST)), 16.97 ± 3.83 x10^3. Also, the “Vesicle KP, DMPC (MST)” value in data set [3] is recorded as 7.08 ± 2.32 × 10^3. In addition, the “Vesicle KP, DMPC/PG (MST)” value in data set [3] is recorded as 16.97 ± 3.83 × 10^3.

`NCCCC[C@@H]1NC(=O)[C@H](CCCCN)NC(=O)[C@H](Cc2c[nH]c3ccccc23)NC(=O)[C@H](Cc2c[nH]c3ccccc23)NC(=O)[C@H](Cc2c[nH]c3ccccc23)NC(=O)[C@H](CCCCN)NC1=O` [compound 3] (cyclo(WWWKKK)): the Kd is 267 ± 47 µM in data set [1] (setting [5]), 145 ± 55 µM in data set [1] (setting [6]), 28 ± 3 µM in data set [3] (setting [7]) and 17 ± 13 µM in data set [3] (setting [8]). Besides, the “SMA-QA KP, DMPC (MST)” value in data set [1] was 9.16 ± 2.86 × 10^3. Besides, the “SMA-QA KP, DMPC/PG (MST)” value in data set [1] is recorded as 4.93 ± 0.81 × 10^3. In addition, the “membrane partition coefficient KP (KP x 10^3)” value in data set [2] (DMPC bilayer on SPR chip) was 2.53 ± 0.08 x10^3; in data set [2] (DMPC/PG bilayer on SPR chip) it was 5.16 ± 0.34 x10^3; in data set [4] (DMPC vesicles (MST)) it was 2.55 ± 0.89 x10^3; in data set [4] (DMPC/PG vesicles (MST)), 11.05 ± 4.49 x10^3. Besides, the “Vesicle KP, DMPC (MST)” value in data set [3] is reported as 2.55 ± 0.89 × 10^3. Moreover, the “Vesicle KP, DMPC/PG (MST)” value in data set [3] is on record as 11.05 ± 4.49 × 10^3.

Regarding `NCCCC[C@@H]1NC(=O)[C@H](Cc2c[nH]c3ccccc23)NC(=O)[C@H](CCCCN)NC(=O)[C@H](Cc2c[nH]c3ccccc23)NC(=O)[C@H](CCCCN)NC(=O)[C@H](Cc2c[nH]c3ccccc23)NC1=O` [compound 4] (cyclo(WKWKWK)), the Kd in data set [1] (setting [5]) was > 713 µM; in data set [3] (setting [7]), 282 ± 58 µM; in data set [3] (setting [8]) it was 112 ± 29 µM. Further, the “SMA-QA KP, DMPC (MST)” value in data set [1] is 6.15 ± 6.54 × 10^3. In addition, the “SMA-QA KP, DMPC/PG (MST)” value in data set [1] is listed as 3.23 ± 1.87 × 10^3. Also, the “membrane partition coefficient KP (KP x 10^3)” value was 0.53 ± 0.01 x10^3 in data set [2] (DMPC bilayer on SPR chip), 0.63 ± 0.03 x10^3 in data set [2] (DMPC/PG bilayer on SPR chip), 8.56 ± 7.41 x10^3 in data set [4] (DMPC vesicles (MST)) and 14.90 ± 4.84 x10^3 in data set [4] (DMPC/PG vesicles (MST)). Besides, the “Vesicle KP, DMPC (MST)” value in data set [3] was 8.56 ± 7.41 × 10^3. Moreover, in data set [3], the “Vesicle KP, DMPC/PG (MST)” value is 14.90 ± 4.84 × 10^3.

`CC(C)C[C@@H]1NC(=O)[C@@H](CCCNC(=N)N)NC(=O)[C@H](CCCCN)NC(=O)[C@H](CC(N)=O)NC(=O)[C@@H](Cc2c[nH]c3ccccc23)NC(=O)[C@H](Cc2c[nH]c3ccccc23)NC1=O` [compound 5] (cyclo(LW[dW]NK[dR])): the Kd in data set [1] (setting [6]) is > 1000 µM; in data set [3] (setting [7]) it was > 670 µM; in data set [3] (setting [8]), > 650 µM. Besides, the “SMA-QA KP, DMPC (MST)” value in data set [1] is reported as 17.12 ± 12.90 × 10^3. The “SMA-QA KP, DMPC/PG (MST)” value in data set [1] is on record as 3.35 ± 0.57 × 10^3. Besides, the entries for the “membrane partition coefficient KP (KP x 10^3)” value in data set [2] (DMPC bilayer on SPR chip), in data set [4] (DMPC vesicles (MST)) and in data set [4] (DMPC/PG vesicles (MST)) were 0.28 ± 0.01 x10^3, 3.10 ± 2.17 x10^3 and 1.47 ± 0.07 x10^3, respectively. Also, the “Vesicle KP, DMPC (MST)” value in data set [3] is on record as 3.10 ± 2.17 × 10^3. In addition, in data set [3], the “Vesicle KP, DMPC/PG (MST)” value is given as 1.47 ± 0.07 × 10^3.
